Experiments:
[1] = even at high doses; cited from earlier work
NMD = assay: Inhibition of NMD with a protein synthesis inhibitor; settings: preliminary
Source text: The major drawbacks to using the RNA-based cDNA assay are that the gene-specific RNA may not be produced in an easily collectable tissue and mutant RNA may be lost to a great extent by NMD. […] NMD can be minimized by pre-treating collected cells, such as white blood cells, with a protein synthesis inhibitor before RNA collection. This approach has been successful for the yeast gap repair p53 assay (Flaman et al., 1995; Andreutti-Zaugg et al., 1997) and may be extrapolated to in vivo studies by the administration of a protein synthesis inhibitor to rat pups prior to tissue collection. […] The problem of a gene-specific RNA not being produced in tail tissue may be reduced by extending the range of biopsy tissues collected from viable rats, e.g., WBC, liver, skin, etc. In the future as it becomes possible to cryopreserve rat sperm from F1 male rats of mutagenized fathers, their sperm can be frozen and a wide variety of organ-specific RNAs could also be collected and stored, along with DNA from tails or spleens. DNAs or RNAs from a large number of rats could be screened and the appropriate frozen sperm used for the mutant rat recovery via in vitro fertilization and implantation. […]

NMD of hMSH2 and hMLH1 = settings: treatment of freshly drawn whole blood; cited from earlier work
CYP1A1 RNA mutant allele = settings: cell line with a CYP1A1 mutation; cited from earlier work
mutated HEXA allele mRNA = settings: increased from undetectable; cited from earlier work

Molecule: Gentamicin
- short-term toxicity profile [1]: very low short-term toxicity profile even at high doses

Molecule: CC[C@H]1CN2CCc3cc(OC)c(OC)cc3[C@@H]2C[C@@H]1C[C@H]1NCCc2cc(OC)c(OC)cc21 [emetine]
- inhibition of NMD (NMD): preliminary success in inhibiting NMD

Molecule: COc1ccc(C[C@H](N)C(=O)N[C@H]2[C@@H](O)[C@H](n3cnc4c(N(C)C)ncnc43)O[C@@H]2CO)cc1 [puromycin]
- NMD of hMSH2 and hMLH1 (NMD of hMSH2 and hMLH1): suppressed
- steady-state level of CYP1A1 RNA mutant allele (CYP1A1 RNA mutant allele): fully restored

Molecule: C[C@@H]1C[C@@H]([C@H](O)CC2CC(=O)NC(=O)C2)C(=O)[C@@H](C)C1 [cyclohexamide]
- mRNA levels of the mutated HEXA allele (mutated HEXA allele mRNA): 40 % of the wild-type allele

Source: patent US20070056052A1, “Methods of generating knock-out rodents” (priority 2001, published 2007)
